Consider 1 compound from US20230257373A1, “QUORUM SENSING INHIBITORS AND METHODS OF USE” (priority 2020, published 2023).

Read-outs that look alike come from different tables or passages of the source.

The target of assay [1] is T1, V. campbellii LuxR (Vibrio harveyi, UniProt P21308).
T1 construct: expressed in transfected cells; host or cells: E. coli DH10B with pKM699 and reporter pJV064
Kind of assay: qRT-PCR and western blots in wild-type V. campbellii. Type of assay: cell-based. An excerpt:
The Qstatin-treated regulon overlapped with the SmcR regulon by more than 50%, with similar gene expression fold-changes. […] This is important to note because LuxR and HapR proteins are known to autorepress their own expression. To test the effects of adding inhibitors to V. campbellii LuxR, we added 10A, 10B, and 10C to wild-type V. campbellii and used qRT-PCR and western blots to examine the effects on luxR transcript and protein levels. We also examined the transcript levels for luxC and 05222 genes that are directly activated or repressed by LuxR, respectively.
All PCR reactions were performed using Phusion HF polymerase (NEB). T4 polynucleotide kinase (T4 PNK) used in EMSAs and all other enzymes were purchased from NEB and used according to manufacturer's instructions. Site-directed mutagenesis for construction of plasmids expressing mutant proteins was carried out using the Agilent QuikChange II XL Site-Directed Mutagenesis Kit. All oligonucleotides were purchased from Integrated DNA Technologies (IDT).ALL plasmid constructs were confirmed by DNA sequencing (Eurofins). Cloning details for plasmids are available upon request. Western blot analysis was performed as previously described (van Kessel et al., 2013b), except that new anti-LuxR antibodies were generated through Cocalico against purified LuxR protein. In addition, the western blots were probed with anti-RpoB (Neoclone).
Then cells were induced with 50 μM IPTG and grown under the same conditions until cells reached an OD600 of approximately 1, at which 5 mL of cells were collected by centrifugation and frozen in liquid N2. RNA was extracted using a Trizol/chloroform extraction protocol previously described (Rutherford et al., 2011). Quantitative real-time PCR (qRT-PCR) was performed as previously described (Chaparian et al., 2016). Samples were normalized to the internal standard hfq gene. The ΔΔCT values were used to analyze data from three independent biological replicates. Symbols on graphs represent the mean values and error bars represent the standard deviations. All statistical analysis was performed with functions from GraphPad Prism version 8.
(Real-time PCR tracks product formation cycle by cycle.)

Assay [2] concerns PluxC-gfp reporter in V. parahaemolyticus. Put plainly: PluxC-gfp reporter in V. parahaemolyticus strains. Conditions: Vibrio parahaemolyticus.

T1 sequence (P21308 whole entry): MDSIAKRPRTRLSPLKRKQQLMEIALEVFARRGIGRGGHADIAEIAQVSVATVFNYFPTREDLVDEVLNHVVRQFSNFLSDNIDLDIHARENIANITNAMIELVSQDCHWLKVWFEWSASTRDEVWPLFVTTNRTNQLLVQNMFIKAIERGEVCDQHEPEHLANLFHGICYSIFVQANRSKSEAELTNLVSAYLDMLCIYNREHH

As for `O=S(=O)(c1cccs1)n1ccc(-c2ccccc2)n1` [Compound 10B], the luxC transcripts entry in assay [1] (qRT-PCR, to levels in a ΔluxR strain) is on record as “significantly decreased”. Moreover, the 05222 transcripts result in assay [1] (qRT-PCR, wild-type cultures) was “significantly increased”. Besides, the LuxR protein level entry in assay [1] (western blot, wild-type V. campbellii) is recorded as “visible increase”. Moreover, the IC50 was determined as 280 nM in assay [2] (read-out: IC50, V. parahaemolyticus RIMD2210633, luxCDABE reporter plasmid); 320 nM in assay [2] (read-out: Inhibition (IC50) of the PluxC-gfp reporter, Vpara 12-297/B); 270 nM in assay [2] (read-out: Inhibition (IC50) of the PluxC-gfp reporter, Vpara D4); 170 nM in assay [2] (read-out: Inhibition (IC50) of the PluxC-gfp reporter, Vpara RIMD 2210633).
